The record followed here is ChEMBL document CHEMBL4680116, “Development of benzimidazole-based derivatives as antimicrobial agents and their synergistic effect with colistin against gram-negative bacteria” (Eur J Med Chem, 2020).

The test system of series [1] is Escherichia coli. Put plainly: Antimicrobial activity against Escherichia coli JW55031 TolC mutant assessed as reduction in microbial growth incubated for 18 to 20 hrs by broth microdilution method. (In broth dilution the organism is exposed to a series of concentrations in liquid medium.)
The test system of series [2] is Acinetobacter baumannii. Put plainly: Antibacterial activity against Acinetobacter baumannii ATCC 19606 incubated for 18 to 20 hrs by broth microdilution method. It is filed as functional. The conditions noted are these: time 18-20 hrs.
In series [3] the test system is Klebsiella pneumoniae. Put plainly: Synergistic antibacterial activity against Klebsiella pneumoniae ATCC 1706 in presence of 0.25 times MIC of colistin incubated for 18 to 20 hrs by broth microdilution method. The series is classed as functional. The note with it: time 18-20 hrs.
The subject of series [4] is Escherichia coli. Put plainly: Antibacterial activity against Escherichia coli ATCC 25922 incubated for 18 to 20 hrs by broth microdilution method. The series is classed as functional. The conditions noted are these: time 18-20 hrs.
Series [5] deals with Escherichia coli. Put plainly: Antibacterial activity against wild type Escherichia coli BW25113 incubated for 18 to 20 hrs by broth microdilution method. The series is classed as functional. The conditions noted are these: time 18-20 hrs.
Series [6] deals with Klebsiella pneumoniae. Put plainly: Antibacterial activity against Klebsiella pneumoniae ATCC 1706 incubated for 18 to 20 hrs by broth microdilution method. It is filed as functional. The note with it: time 18-20 hrs.
The subject of series [7] is Escherichia coli. Put plainly: Synergistic antibacterial activity against Escherichia coli ATCC 25922 in presence of 0.25 times MIC of colistin incubated for 18 to 20 hrs by broth microdilution method. The series is classed as functional. The conditions noted are these: time 18-20 hrs.
The test system of series [8] is Pseudomonas aeruginosa. Put plainly: Antibacterial activity against Pseudomonas aeruginosa ATCC 15442 incubated for 18 to 20 hrs by broth microdilution method. The series is classed as functional. The note with it: time 18-20 hrs.
Series [9] relates to Pseudomonas aeruginosa. Put plainly: Synergistic antibacterial activity against Pseudomonas aeruginosa ATCC 15442 in presence of 0.25 times MIC of colistin incubated for 18 to 20 hrs by broth microdilution method. It is filed as functional. The conditions noted are these: time 18-20 hrs.
In series [10] the test system is Acinetobacter baumannii. Put plainly: Synergistic antibacterial activity against Acinetobacter baumannii ATCC 19606 in presence of 0.25 times MIC of colistin incubated for 18 to 20 hrs by broth microdilution method. It is filed as functional. The conditions noted are these: time 18-20 hrs.
In series [11] the test system is Escherichia coli. Put plainly: Synergistic antibacterial activity against wild type Escherichia coli BW25113 in presence of 0.25 times MIC of colistin incubated for 18 to 20 hrs by broth microdilution method. It is filed as functional. The note with it: time 18-20 hrs.
Series [12] has as its system Caco-2. Put plainly: Cytotoxicity against human Caco-2 cells assessed as reduction in cell viability incubated for 2 hrs by MTS assay. It is filed as cell-based. The conditions noted are these: caco-2, 2 h. (In general: Tetrazolium dyes change colour on reduction, which living cells bring about.)
Series [13] concerns Vero. Put plainly: Cytotoxicity against African green monkey Vero cells assessed as reduction in cell viability incubated for 2 hrs by MTS assay. The series is classed as cell-based. The note with it: chlorocebus sabaeus.

≈ marks a conversion by molar mass, not a printed value. Bounds are passed on as bounds.

In general, MIC refers to the lowest concentration found to suppress growth. Regarding `COc1ccc(-c2nc3ccccc3n2Cc2ccc(C)cc2)cc1`, the minimal inhibitory concentration (MIC) in [1] is > 128 µg/mL.
With `Cc1ccc(Cn2c(-c3ccccc3)nc3ccccc32)cc1`, in series [1], the MIC was 8 µg/mL.
Still for that read-out and setting: the figure for `c1ccc(Cn2c(-c3ccccc3)nc3ccccc32)cc1` is 16 µg/mL.
Same read-out and setting: the figure for `CC(=O)Nc1cccc(-c2nc3ccccc3n2Cc2ccc(Cl)cc2)c1` is > 128 µg/mL.
Regarding `CCCCCCCCCC(=O)N[C@@H](Cc1c[nH]c2ccccc12)C(=O)N[C@H](CC(N)=O)C(=O)N[C@@H](CC(=O)O)C(=O)N[C@@H]1C(=O)NCC(=O)N[C@@H](CCCN)C(=O)N[C@@H](CC(=O)O)C(=O)N[C@H](C)C(=O)N[C@@H](CC(=O)O)C(=O)NCC(=O)N[C@H](CO)C(=O)N[C@@H]([C@H](C)CC(=O)O)C(=O)N[C@@H](CC(=O)c2ccccc2N)C(=O)O[C@@H]1C`, the MIC in [2], in [3], in [4], in series [5], in series [6] and in [7] was > 128 µg/mL throughout. Besides, the MIC in series [8], in [9], in series [10] and in series [11] was > 128 µg/mL in each case.
For the compound `CS(=O)(=O)Nc1cccc(-c2nc3ccccc3n2CC2CCCCC2)c1`, the MIC in series [1] is 16 µg/mL.
On the same count and under the same terms, the figure for `Cc1ccc(Cn2c(-c3cccc(C#N)c3)nc3ccccc32)cc1` is 16 µg/mL; for `CS(=O)(=O)Nc1cccc(-c2nc3ccccc3n2Cc2ccc(Cl)cc2)c1` it is 8 µg/mL.
On to `CC(=O)Nc1cccc(-c2nc3ccccc3n2Cc2ccc(C)cc2)c1`, for which, in series [1], the MIC is > 128 µg/mL.
On the same count and under the same terms, for `CS(=O)(=O)Nc1cccc(-c2nc3ccccc3n2Cc2ccc(C#N)cc2)c1` the value was 64 µg/mL.
For the compound `CS(=O)(=O)Nc1cccc(-c2nc3ccccc3n2Cc2ccccc2)c1`, in [1], the MIC was 16 µg/mL.
`CS(=O)(=O)Nc1cccc(-c2nc3ccccc3n2Cc2ccc(Cl)cc2Cl)c1`: the MIC in series [1] was 8 µg/mL.
Still for that read-out and setting: the figure for `Cc1ccc(Cn2c(-c3cccc(C(F)(F)F)c3)nc3ccccc32)cc1` is > 128 µg/mL.
Turning to `Cc1ccc(Cn2c(-c3cccc([N+](=O)[O-])c3)nc3ccccc32)cc1`, the MIC in series [1] was > 128 µg/mL.
For the compound `Cc1ccc(Cn2c(-c3ccc(C(F)(F)F)cc3)nc3ccccc32)cc1`, the MIC in [1] was found to be 128 µg/mL.
Consider `CS(=O)(=O)Nc1cccc(-c2nc3ccccc3n2Cc2cccc(F)c2)c1`, for which the minimum inhibitory concentration (MIC) in series [1] worked out at 64 µg/mL.
Take `CS(=O)(=O)Nc1cccc(-c2nc3ccccc3n2Cc2ccc(Br)cc2)c1`: the MIC in series [1] was 4 µg/mL.
Still for that read-out and setting: for `Cc1ccc(Cn2c(-c3cccc(N)c3)nc3ccccc32)cc1` the value was 4 µg/mL; for `Cc1ccc(Cn2c(-c3ccc(Cl)cc3)nc3ccccc32)cc1`, > 128 µg/mL; for `CS(=O)(=O)Nc1cccc(-c2nc3ccccc3n2Cc2cccc(C#N)c2)c1`, > 128 µg/mL.
On the same count and under the same terms, for `Cc1ccc(Cn2c(-c3ccc(OC(F)(F)F)cc3)nc3ccccc32)cc1` the value was > 128 µg/mL.
As for `Nc1cccc(-c2nc3ccccc3n2Cc2ccc(C(F)(F)F)cc2)c1`, in [1], the MIC was 8 µg/mL.
Same read-out and setting: for `CS(=O)(=O)Nc1cccc(-c2nc3ccccc3n2Cc2ccc(OC(F)(F)F)cc2)c1` the value was > 128 µg/mL; for `FC(F)(F)c1ccc(Cn2c(-c3ccccc3)nc3ccccc32)cc1`, 8 µg/mL.
Still for that read-out and setting: the figure for `CS(=O)(=O)Nc1cccc(-c2nc3ccccc3n2Cc2ccc(F)cc2)c1` is 32 µg/mL.
For `CS(=O)(=O)Nc1cccc(-c2nc3ccccc3n2Cc2cccc3ccccc23)c1`, the MIC in series [1] was > 128 µg/mL.
Take `Cc1ccc(Cn2c(-c3ccc(C#N)cc3)nc3ccccc32)cc1`: the MIC in series [1] is > 128 µg/mL.
Regarding `Cc1cccc(Cn2c(-c3cccc(NS(C)(=O)=O)c3)nc3ccccc32)c1`, the MIC in [1] turned out to be 16 µg/mL.
Regarding `Cc1ccc(Cn2c(-c3cccc(NS(C)(=O)=O)c3)nc3ccccc32)cc1`, the MIC was > 128 µg/mL in series [2]; 8 µg/mL in series [3]; > 128 µg/mL in series [4]; > 128 µg/mL in [5]; > 128 µg/mL in series [6]; 16 µg/mL in [7]. Moreover, the MIC in [8] is > 128 µg/mL; in series [9], 16 µg/mL; in series [10] it was 8 µg/mL; in [1], 2 µg/mL; in series [11] it was 16 µg/mL. Moreover, the Activity result in [12] and in series [13] was “Non-Toxic” throughout.
Turning to `CS(=O)(=O)Nc1cccc(-c2nc3ccccc3n2Cc2ccc(Cl)c(Cl)c2)c1`, the MIC in [1] was found to be 8 µg/mL.
As for `Nc1cccc(-c2nc3ccccc3n2Cc2ccc(Cl)c(Cl)c2)c1`, the MIC in series [1] is 4 µg/mL.
Still for that read-out and setting: the figure for `CS(=O)(=O)Nc1cccc(-c2nc3ccccc3n2Cc2cccc(Cl)c2)c1` is 16 µg/mL; for `CS(=O)(=O)Nc1cccc(-c2nc3ccccc3n2Cc2ccc(C(F)(F)F)cc2)c1` it is 16 µg/mL; for `Cc1ccc(Cn2c(-c3ccc(NS(C)(=O)=O)cc3)nc3ccccc32)cc1` it is > 128 µg/mL.
For the compound `CC[C@H]1OC(=O)[C@H](C)[C@@H](O[C@H]2C[C@@](C)(OC)[C@@H](O)[C@H](C)O2)[C@H](C)[C@@H](O[C@@H]2O[C@H](C)C[C@H](N(C)C)[C@H]2O)[C@](C)(O)C[C@@H](C)C(=O)[C@H](C)[C@@H](O)[C@]1(C)O` [ERYTHROMYCIN], the MIC in series [2] was found to be 16 µg/mL (≈ 21.8 µM); in [3], 2 µg/mL; in [4], 16 µg/mL (≈ 21.8 µM); in series [5], 16 µg/mL (≈ 21.8 µM); in series [6], 64 µg/mL (≈ 87.2 µM); in series [7], 1 µg/mL. The MIC amounted to 64 µg/mL (≈ 87.2 µM) in [8], 2 µg/mL in series [9], 0.5 µg/mL in [10] and 1 µg/mL in series [11].
On to `CC(=O)NC[C@H]1CN(c2ccc(N3CCOCC3)c(F)c2)C(=O)O1` [LINEZOLID], for which the minimal inhibitory concentration (MIC) is > 128 µg/mL in [2]; > 128 µg/mL in [3]; 128 µg/mL (≈ 379 µM) in series [4]; 128 µg/mL (≈ 379 µM) in [5]; > 128 µg/mL in series [6]; 128 µg/mL in [7]. Also, the MIC is > 128 µg/mL in series [8]; > 128 µg/mL in series [9]; > 128 µg/mL in series [10]; 8 µg/mL in series [1]; 128 µg/mL in [11].
